We go through 16 molecules from patent US20250108036A1, “COMPOSITIONS FOR REMOVING SENESCENT CELLS AND USES THEREOF” (LIFECEUTIX CO., LTD., priority 2021, published 2025).

Common to all, as to assay type: cell-based, human
Experiment [1] has as its system foreskin cells in which senescence was induced by doxorubicin. Kind of experiment: CellTiter-Glo cell viability of doxorubicin-induced senescent foreskin cells (Examples 1-2, 10, 11, 13; Tables 4, 63, 65). The conditions noted are these: Homo sapiens, 72 h, read-out: Survival (%); for viability at […]: […] test compound; for viability at 30 µM: 30 μM test compound.
Method: After 3 days, cell viability was measured using CellTiter-Glo Luminescent Cell Viability Assay (Promega) or light microscopy.
The next experiment has as its system A549. Briefly: CellTiter-Glo cell viability of senescent A549 cancer cells (Example 12, Table 67). The conditions noted are these: Homo sapiens; for viability at 90 µM: 90 μM test compound.
The subject of experiment [2] is HMGN1. Kind of experiment: HMGN1 ELISA in culture medium of A549 cancer cells (Example 12, Table 66). The note with it: Homo sapiens; for activity at 90 µM: test compound 90 μM.
The test system of experiment [3] is HMGN1. Kind of experiment: HMGN1 ELISA in culture medium of foreskin cells (Examples 10, 11; Tables 62, 63, 64). The conditions noted are these: Homo sapiens, read-out: HMGN1.
Where [4] appears, read: 1.1 μM test compound, doxorubicin-induced senescent foreskin cells, CellTiter-Glo, 0 μM = 100.
Setting [5] is: doxorubicin-induced senescent foreskin cells, CellTiter-Glo, 0 μM = 100.
The mark [6] stands for this setting: A549, doxorubicin-induced senescent A549 cancer cells, 1.1 μM test compound, CellTiter-Glo, read-out: Survival (%).
The mark [7] stands for this setting: A549, doxorubicin-induced senescent A549 cancer cells, 10 μM test compound, CellTiter-Glo, read-out: Survival (%).
Where [8] appears, read: A549, doxorubicin-induced senescent A549 cells, test compound 30 μM, ELISA, DMSO = 100, read-out: HMGN1 (amount of HMGN1 secreted in the cell culture).
The mark [9] stands for this setting: 30 μM test compound, doxorubicin-treated foreskin cells, DMSO = 100.
Where [10] appears, read: 10 μM test compound, doxorubicin-induced senescent foreskin cells, CellTiter-Glo, 0 μM = 100.
Where [11] appears, read: A549, doxorubicin-induced senescent A549 cancer cells, 30 μM test compound, CellTiter-Glo, read-out: Survival (%).
Where [12] appears, read: A549, doxorubicin-induced senescent A549 cancer cells, CellTiter-Glo, read-out: Survival (%).
The mark [13] stands for this setting: A549, doxorubicin-induced senescent A549 cells, ELISA, DMSO = 100, read-out: HMGN1 (amount of HMGN1 secreted in the cell culture).

Like-named read-outs stand apart in the source and are kept apart here.

For the molecule `CONC(=O)[C@]12CCC(C)(C)C[C@H]1[C@H]1C(=O)C=C3[C@@]4(C)C=C(C#N)C(=O)C(C)(C)[C@@H]4CC[C@@]3(C)[C@]1(C)CC2` [LX-2310], the viability at 1.1 µM in experiment [1] (setting [4]) came out at 53.7%; in the experiment with A549 (setting [6]), 100%. Further, the viability at […] in experiment [1] (setting [5]) came out at 6.9%. Also, the viability at 10 µM with A549 (setting [7]) was 3.5%. Further, the figures for the activity at 30 µM with HMGN1 [2] (setting [8]) and with HMGN1 [3] (setting [9]) were 319% and 315%, respectively.
On to `Cc1ccc(-c2c(C#N)c(N)n3c(nc4ccccc43)c2C#N)cc1` [LX-1101], for which the viability at 1.1 µM turned out to be 108% in experiment [1] (setting [4]) and 95.4% in the experiment with A549 (setting [6]). Moreover, the viability at 10 µM in experiment [1] (setting [10]) was found to be 47.1%; in the experiment on A549 (setting [7]) it was 92.7%. Also, the viability at 30 µM amounted to 22.8% in experiment [1] (setting [5]) and 88.3% in the experiment on A549 (setting [11]). Besides, in experiment [1] (setting [5]), the viability at […] was determined as 112%. For the same molecule, in the experiment on A549 (setting [12]), the viability at 90 µM came out at 23.7%. Also, the activity at 90 µM in the experiment on HMGN1 [2] (setting [13]) worked out at 183%. Also, in the experiment on HMGN1 [3] (setting [9]), the activity at 30 µM came to 268%.
Regarding `COC(=O)C1=C(C)NC(C)=C(C(=O)OC(C)(C)CN(C)CCC(c2ccccc2)c2ccccc2)C1c1cccc([N+](=O)[O-])c1` (stereo not shown) [LX-2801, Lercanidipine, reference compound], the values for the viability at 1.1 µM (in experiment [1] (setting [4]); in the experiment on A549 (setting [6])) were 104% and 89.6%, respectively. For the same molecule, the viability at 10 µM came out at 51.2% in experiment [1] (setting [10]) and 58.6% in the experiment with A549 (setting [7]). Besides, the viability at 30 µM in experiment [1] (setting [5]) stood at 25.3%; with A549 (setting [11]) it was 14.2%. In addition, the viability at […] in experiment [1] (setting [5]) turned out to be 98.5%. In addition, the activity at 30 µM was found to be 315% in the experiment with HMGN1 [2] (setting [8]) and 241% in the experiment on HMGN1 [3] (setting [9]).
Regarding `C[C@@H]1C(=O)C(C#N)=C[C@]2(C)C3=CC(=O)[C@@H]4[C@@H]5CC(C)(C)CC[C@]5(c5nnc(CF)o5)CC[C@@]4(C)[C@]3(C)CC[C@@H]12` [LX-2507], the figures for the viability at 1.1 µM (in experiment [1] (setting [4]); in the experiment with A549 (setting [6])) were 46.6% and 97.5%, respectively. In addition, the viability at […] in experiment [1] (setting [5]) worked out at 38.6%. Moreover, the viability at 10 µM in the experiment with A549 (setting [7]) stood at 35.7%. Further, the values for the activity at 30 µM in the experiment with HMGN1 [2] (setting [8]) and in the experiment with HMGN1 [3] (setting [9]) were 248% and 267%, respectively.
As to `C=C(C)[C@@H]1CC[C@]2(C(=O)NCC)CC[C@]3(C)[C@H](CCC4[C@@]5(C)C=C(C#N)C(=O)C(C)(C)[C@@H]5CC[C@]43C)[C@@H]12` (stereo partly shown) [LX-2311], the viability at 1.1 µM in experiment [1] (setting [4]) worked out at 39.5%; with A549 (setting [6]), 97.5%. The viability at […] in experiment [1] (setting [5]) was determined as 4.1%. Moreover, the viability at 10 µM in the experiment with A549 (setting [7]) is 8.9%. Moreover, the values for the activity at 30 µM with HMGN1 [2] (setting [8]) and in the experiment on HMGN1 [3] (setting [9]) were 276% and 271%, respectively.
For the molecule `C#CC(=O)N1[C@@H](CCCC)Cc2cc(CO)ccc2[C@@H]1c1ccc(NC23CC4CC(CC(C4)C2)C3)cc1` [LX-421], the viability at 1.1 µM in experiment [1] (setting [4]) came to 3.4%; in the experiment on A549 (setting [6]) it was 3.8%. In addition, the results for the activity at 30 µM in the experiment on HMGN1 [2] (setting [8]) and with HMGN1 [3] (setting [9]) were 328% and 293%, respectively.
Take `CCN(CC)c1nc2c(C(=O)O)c(O)c(I)c(-n3cccc3)c2s1` [LX-911]: the viability at 1.1 µM in experiment [1] (setting [4]) worked out at 94.3%; with A549 (setting [6]), 98.4%. For the same molecule, the viability at 10 µM in experiment [1] (setting [10]) was determined as 43.5%; in the experiment with A549 (setting [7]), 82.9%. Further, the viability at 30 µM in experiment [1] (setting [5]) is 7.5%; with A549 (setting [11]), 78.6%. In experiment [1] (setting [5]), the viability at […] came to 91.6%. In addition, the viability at 90 µM in the experiment with A549 (setting [12]) was determined as 27.4%. Also, in the experiment with HMGN1 [2] (setting [13]), the activity at 90 µM worked out at 206%. The activity at 30 µM in the experiment with HMGN1 [3] (setting [9]) stood at 294%.
On to `C=C1C(=O)C2CCN1CC2` [LX-702, 2-Methylene-3-quinuclidinone], for which, in experiment [1], the viability at 1.1 µM is 82.1% and the viability at 10 µM is 6.5%. Also, in the experiment on A549 (A549, read-out: Survival (%)), the viability at 1.1 µM came to 87.3%, the viability at 10 µM stood at 33.4% and the viability at 30 µM stood at 3%. Further, in the experiment on HMGN1 [2] (A549, read-out: HMGN1 (amount of HMGN1 secreted in the cell culture)), the activity at 30 µM stood at 305%. Further, in the experiment on HMGN1 [3], the activity at 30 µM was 278%.
`Cc1noc([C@]23CCC(C)(C)C[C@H]2[C@H]2C(=O)C=C4[C@@]5(C)C=C(C#N)C(=O)C(C)(C)[C@@H]5CC[C@@]4(C)[C@]2(C)CC3)n1` [LX-2401]: the viability at 1.1 µM in experiment [1] (setting [4]) was found to be 46.4%; with A549 (setting [6]), 108%. Also, the viability at […] in experiment [1] (setting [5]) was found to be 6.8%. The viability at 10 µM with A549 (setting [7]) stood at 15.9%. The activity at 30 µM with HMGN1 [2] (setting [8]) was found to be 284%; with HMGN1 [3] (setting [9]), 303%.
In the case of `C=CC(=O)NC[C@]12CCC(C)(C)C[C@H]1[C@H]1C(=O)C=C3[C@@]4(C)C=C(C#N)C(=O)C(C)(C)[C@@H]4CC[C@@]3(C)[C@]1(C)CC2` [LX-2509], the results for the viability at 1.1 µM (in experiment [1] (setting [4]); in the experiment with A549 (setting [6])) were 81.1% and 106%, respectively. Further, the viability at […] in experiment [1] (setting [5]) was 13.5%. In addition, in the experiment on A549 (setting [7]), the viability at 10 µM amounted to 21.8%. Also, the activity at 30 µM with HMGN1 [2] (setting [8]) came to 305%; with HMGN1 [3] (setting [9]), 301%.
With `COCC1Cc2c([nH]c3ccccc23)[C@H](c2ccc(C(=O)NC3CC3)cc2F)N1C(=O)CCl` (stereo partly shown) [LX-413], the results for the viability at 1.1 µM (in experiment [1] (setting [4]); with A549 (setting [6])) were 0.5% and 10.1%, respectively. Moreover, the activity at 30 µM stood at 322% in the experiment on HMGN1 [2] (setting [8]) and 287% with HMGN1 [3] (setting [9]).
Consider `C[C@H]1C(=O)C(C#N)=C[C@@]2(C)c3c(c(-c4ccccc4)nn3-c3ccc(-c4cccc(CO)c4)cc3)CC[C@H]12` [LX-2505], for which the viability at 1.1 µM in experiment [1] (setting [4]) was 78.6%; with A549 (setting [6]) it was 100%. In addition, in experiment [1] (setting [5]), the viability at […] was 36.9%. Also, in the experiment on A549 (setting [7]), the viability at 10 µM came to 18.6%. For the same molecule, the activity at 30 µM amounted to 308% with HMGN1 [2] (setting [8]) and 248% in the experiment with HMGN1 [3] (setting [9]).
Consider `CC(O)[C@]1(C)C(=O)C(C#N)=C[C@]2(C)C3=CC(=O)[C@]45OC(=O)[C@@]6(CCC(C)(C)C[C@H]64)CC[C@@]5(C)[C@]3(C)CC[C@@H]12` (stereo partly shown) [LX-2501], for which the viability at 1.1 µM in experiment [1] (setting [4]) was 11.1%; in the experiment with A549 (setting [6]), 14.4%. Also, the activity at 30 µM with HMGN1 [2] (setting [8]) came out at 333%; in the experiment on HMGN1 [3] (setting [9]), 309%.
For the molecule `CC1(C)C(=O)C(C#N)=C[C@]2(C)C3=CC(=O)[C@@H]4[C@@H]5C[C@@](C)(C(=O)NCCc6c[nH]c7ccccc67)CC[C@]5(C)CC[C@@]4(C)[C@]3(C)CCC12` (stereo partly shown) [LX-2517, Soloxolone tryptamide], the viability at 1.1 µM in experiment [1] (setting [4]) worked out at 0.6%; with A549 (setting [6]) it was 8.4%. Moreover, the activity at 30 µM stood at 318% with HMGN1 [2] (setting [8]) and 298% in the experiment on HMGN1 [3] (setting [9]).
The corresponding values for `COC(=O)c1ccc([C@@H]2c3ccc(OC)cc3C[C@H](C(=O)OC)N2C(=O)CCl)cc1` [LX-417] are 21.8%, 43.5%, 347% and 294%.
Consider `Cc1onc(C(=O)N2CCN(C(c3ccc(Cl)cc3)c3ccc(OCc4cn(CCOCCNc5cccc6c5C(=O)N(C5CCC(=O)NC5=O)C6=O)nn4)cc3)CC2)c1[N+](=O)[O-]` (stereo not shown) [LX-431, 4-((2-(2-(4-((4-((4-chlorophenyl)(4-(5-methyl-4-nitroisooxazol-3-carbonyl)piperazin-1-yl)methyl)phenoxy)methyl)-1H-1,2,3-triazol-1-yl)ethoxy)ethyl)amino)-2-(2,6-dioxopiperidin-3-yl)isoindolin-1,3-dione], for which the values for the viability at 1.1 µM (in experiment [1] (setting [4]); in the experiment on A549 (setting [6])) were 89.5% and 94.6%, respectively. Also, the viability at […] in experiment [1] (setting [5]) was determined as 12.6%. The activity at 30 µM with HMGN1 [2] (setting [8]) was 283%; in the experiment on HMGN1 [3] (setting [9]), 312%.
